{"source": "patent US20230365516A1", "about": "“COMPOUNDS FOR CANCER THERAPY AND IMAGING” (Washington University, priority 2020, published 2023)", "key": {"[1]": {"system": "MM.1S cells", "assay": "Cell viability assay (CellTiter-Glo), MM.1S cells", "type": "cell-based, human", "conditions": "for EC50: MM1.S", "procedure": "(§1) Cell culture and Reagents: Human MM cell lines MM1.S, U266, and OPM2 were cultured in RPMI-1640 medium supplemented with 10% fetal bovine serum, 100 units/mL penicillin, 100 µg/mL streptomycin at 37° C., 5% CO2. PBMCs were purchased from Lonza Bioscience, USA and maintained overnight in RPMI-1640 medium supplemented with 10% fetal bovine serum, 100 units/mL penicillin, 100 µg/mL streptomycin at 37° C., 5% CO2 before using for experiments. IL-6 and IGF-1 were purchased from R&D Systems. PD98059 was obtained from Cell Signaling Technology. Z-VAD-FMK was purchased from Santa Cruz. Bortezomib was obtained from Sigma. LS1090 [2-((7-nitrobenzo[c][1,2,5]oxadiazol-4-yl)thio)ethyl (3-(trifluoromethyl)phenyl)carbamate] was purchased from MolPort, Inc.M. Maybridge library was purchased from Thermo Fisher Scientific, NeXT Diversity 3500 and Diversity SAR 3500 sets were gifts from NCI.\n(§2) Cell viability assay: Twenty thousand MM1.S, U266, OPM2, and PBMCs in 100 µL of growth media were added per well in a 96-well plate. The cells were incubated for 24 h with serial dilutions of LS1090 stock solution (10 mM in DMSO) or BTZ stock solution (1 mM in DMSO). Dilutions were prepared in growth media. Cells viability was assessed using the CellTiter-Glo luminescence-based assay (Promega). After adding 100 µL CellTiter-Glo reagent, relative luminescence units (RLU) were measured using the Synergy2 plate reader (BioTek) and expressed as a percentage of the untreated cell controls."}, "[2]": {"system": "U266 cells", "assay": "Cell viability assay (CellTiter-Glo), U266 cells", "type": "cell-based, human", "procedure": "as §1, §2"}, "[3]": {"system": "MM1.S-GFP-Luc disseminated MM xenograft", "quoted_text": "MM1.S cells stably transfected with GFP-firefly Luciferase (MM1.S-GFP-Luc), when administered intravenously (IV) in Fox Chase SCID beige mice, home to the bone marrow (BM) and are readily detectable by bioluminescence imaging (BLI) after 15-21 days from inoculation. On the third week from tumor inoculation, detecting the presence of the MM lesions in BM in mice with BLI photon flux of 106, we initiated therapy.\nThe mice were subjected to four dosages of therapy in two days apart over two weeks. The therapy were stopped after four dosages and the tumor progression over time was monitored by in vivo BLI once a week. […] Paralysis or loss of 15% of the original weight were taken as criteria of end point of the mice.\nEach treated mouse received two doses per week separated by 3 days over two weeks for a total of four dosages, and BLI was used to monitor tumor progression. […] The endpoint for the study includes paralysis, loss of 20% of the original weight or sudden death due to the tumor burden before any other symptom appeared.\nFox Chase SCID Beige mice (From in house colony) (8-10 weeks old) were implanted with MM1.S cells stably transfected with GFP and CBR Luciferase (MM1.S-GFP-Luc) (2 million cells in 100 µL DPBS per mouse) by tail vein injection. […] The progression of tumor was monitored by whole-body BLI once a week post tumor inoculation. […]"}, "[4]": {"system": "chymotrypsin-like activity of proteasomes", "assay": "Proteasome-Glo Chymotrypsin-Like activity assay in MM.1S cells", "type": "cell-based, human", "procedure": "Proteasome activity assays: MM.1S cells were seeded in a white 96-well plate at a density of 20000 per well. Cells were treated with 1 µML LS1090 or 100 nM Bz for 4 h before accessing chymotrypsin-like activity using Proteasome-Glo™ Chymotrypsin-Like, (Promega). After adding the Proteasome-Glo™ reagent, luminescence was determined as relative light units (RLU) using the Synergy2 plate reader (BioTek)."}, "[5]": {"system": "caspase 3/7", "assay": "Caspase-Glo3/7 assay in MM.1S cells", "type": "cell-based, human", "procedure": "Apoptosis and caspase activation assays: Caspase3/7 activity was measured using Caspase-Glo3/7 Assay System (Promega). MM.1S cells were seeded in a white 96-well plate at a density of 20000 cells per well. Cells were pretreated with 20 µmol/L PD98059 followed by incubation with 1 µM LS1090 for 4 h at 37° C., 5% CO2 before accessing caspase 3/7 activity. Caspase-Glo3/7 reagent was added directly to the cells and incubated for 30 min before recording luminescence using the Synergy2 plate reader (BioTek). Data were represented as a fold change from the untreated cells control. Kinetics of apoptosis and necrosis was monitored using RealTimeGlo Annexin V Apoptosis and Necrosis Assay (Promega). MM.1S cells were treated with 1 µM LS1090 and incubated in the presence of 100 µL the RealTimeGlo Annexin V Apoptosis and Necrosis reagent at 37° C., 5% CO2. The luminescence and fluorescence signals were monitored for 24 h. Relative luminescence units (RLU) and relative fluorescence units (RFU) were measured at different time points using the Synergy2 plate reader (BioTek)."}, "[6]": {"system": "Bax", "assay": "Western blot of Bax expression in MM.1S cells", "type": "cell-based, human", "procedure": "(§3) ERK is known to exert its pro-apoptotic function by upregulating p53 and downregulating Bcl-2 expression. […] In contrast, the expression of pro-apoptotic protein, Bax, increased within 1 h post-treatment (FIG. 5H).\n(§4) Cell extract preparation and Western blotting: Protein extracts were prepared by washing cells with PBS (pH 7.4) and suspending in RIPA lysis buffer (20 mM Tris-HCI (pH 7.5), 150 mM NaCl, 1 mM Na2EDTA, 1 mM EGTA, 1% NP-40) containing protease and phosphatase inhibitors (Sigma). Equal amounts of protein, as determined by the BCA protein assay (Thermo Fisher Scientific), were subjected to SDS-PAGE (12% gels; Bio-Rad), followed by transfer to nitrocellulose membrane. Membrane were incubated with 1:1000 anti-ERK1/2 (Thr202/Tyr204, anti-phosphoERK1/2 (Thr202/Tyr204), anti-p53, anti-Bcl2, anti-Bax (Cell Signaling Technology) and anti-βActin (Santa Cruz). Secondary antibodies consisted of horseradish peroxidase-conjugated goat anti-rabbit IgG or goat anti-mouse IgG (Sigma). Detection was done by the enhanced chemiluminescence method (Thermo Fisher Scientific)."}, "[7]": {"system": "OPM2 cells", "assay": "Cell viability assay (CellTiter-Glo), OPM2 cells", "type": "cell-based", "conditions": "OPM-2, human OPM2 cells", "procedure": "as §1\nCell viability assay: Twenty thousand MM1.S, U266, OPM2, and PBMCs in 100 µL of growth media were added per well in a 96-well plate. […] Cells viability was assessed using the CellTiter-Glo luminescence-based assay (Promega). After adding 100 µL CellTiter-Glo reagent, relative luminescence units (RLU) were measured using the Synergy2 plate reader (BioTek) and expressed as a percentage of the untreated cell controls."}, "[8]": {"system": "U266 cells", "assay": "RealTime-Glo Annexin V Apoptosis and Necrosis Assay, U266 cells", "type": "cell-based, human", "conditions": "monitored 24 h"}, "[9]": {"system": "MM.1S cells", "assay": "RealTime-Glo Annexin V Apoptosis and Necrosis Assay, MM.1S cells", "type": "cell-based, human", "description": "LS1090 activates ERK1/2 to induce apoptosis in MM cells via a p53-independent pathway: Chemotherapeutics exert their effects via multiple cell death pathways, including apoptosis and necrosis. To determine the dominant mechanism of LS1090-induced MM cell death, RealTime-Glo Annexin V Apoptosis and Necrosis Assay were used, which report both pathways simultaneously. The method reports apoptosis by detecting phosphatidylserine on the outer leaflet of cell membranes and necrosis by measuring plasma membrane integrity. […] This delayed necrosis onset points to a cell death mechanism where pro-apoptosis induction transforms into secondary necrosis when phagocytes are not available to remove apoptotic cells.\nApoptosis and caspase activation assays: Caspase3/7 activity was measured using Caspase-Glo3/7 Assay System (Promega). MM.1S cells were seeded in a white 96-well plate at a density of 20000 cells per well. […] Caspase-Glo3/7 reagent was added directly to the cells and incubated for 30 min before recording luminescence using the Synergy2 plate reader (BioTek). […] Kinetics of apoptosis and necrosis was monitored using RealTimeGlo Annexin V Apoptosis and Necrosis Assay (Promega). […] The luminescence and fluorescence signals were monitored for 24 h. Relative luminescence units (RLU) and relative fluorescence units (RFU) were measured at different time points using the Synergy2 plate reader (BioTek)."}, "[10]": {"system": "Bcl-2", "assay": "Western blot of Bcl-2 expression in MM.1S cells", "type": "cell-based, human", "procedure": "as §3, §4"}, "[11]": {"system": "PBMCs", "assay": "Cell viability assay (CellTiter-Glo), nontumor PBMCs", "type": "cell-based", "conditions": "24 h incubation, at the EC50/IC50 for MM1.S (0.49 µM) and higher", "protocol": "Cell culture and Reagents: Human MM cell lines MM1.S, U266, and OPM2 were cultured in RPMI-1640 medium supplemented with 10% fetal bovine serum, 100 units/mL penicillin, 100 µg/mL streptomycin at 37° C., 5% CO2. PBMCs were purchased from Lonza Bioscience, USA and maintained overnight in RPMI-1640 medium supplemented with 10% fetal bovine serum, 100 units/mL penicillin, 100 µg/mL streptomycin at 37° C., 5% CO2 before using for experiments. […] Bortezomib was obtained from Sigma."}, "[12]": {"system": "5TGM1", "assay": "Growth inhibition of mouse MM cell line 5TGM1", "type": "cell-based"}, "[13]": {"system": "IGR Cap1, HT1080, and MDA MB231", "assay": "Viability of selected cancer cell lines after 24 h with LS1090", "type": "cell-based", "conditions": "1 µM LS1090, 24 h", "procedure": "Cells were treated with LS1090 for 24h, followed by assessment of viability using CellTitler-Glow assay. n=4 for each condition.\nAdditionally, the viability of selected cancer cell lines were evaluated (IGR Cap1, HT1080, and MDA MB231) after 24 h incubation with LS1090 (see, e.g. FIGS. 9-11)."}, "[14]": {"system": "p53", "assay": "Western blot of p53 expression in MM.1S cells", "type": "cell-based, human", "procedure": "as §3, §4"}, "[15]": {"system": "ERK1/2", "assay": "Western blot of ERK1/2 activation in MM.1S cells", "type": "cell-based, human", "procedure": "ERK1/2 signaling plays an essential role in the cascade of apoptosis-mediated cell death. To interrogate its involvement, MM.1S cells were treated with LS1090 and Western blots used to determine ERK1/2 activation. […] Given that ERK1/2 signaling can utilize caspase-dependent or independent pathways to induce apoptosis, LS1090 mediated activation of caspase 3/7 in MM.1S cells was examined in the presence or absence of ERK1/2 activation inhibitor, PD98059. […] The consequential effect of caspase 3/7 activation on cell death was further validated by determining the viability of LS1090-treated MM1.S cells in the presence or absence of the caspase inhibitor, Z-VAD-fmk.\nCell extract preparation and Western blotting: Protein extracts were prepared by washing cells with PBS (pH 7.4) and suspending in RIPA lysis buffer (20 mM Tris-HCI (pH 7.5), 150 mM NaCl, 1 mM Na2EDTA, 1 mM EGTA, 1% NP-40) containing protease and phosphatase inhibitors (Sigma). Equal amounts of protein, as determined by the BCA protein assay (Thermo Fisher Scientific), were subjected to SDS-PAGE (12% gels; Bio-Rad), followed by transfer to nitrocellulose membrane. […]"}}, "note": "Entries after “also recorded” stand apart in the source; their conditions may differ. Like-named read-outs stand apart in the source and are kept apart here.", "data": [{"compound": "Z-VAD-fmk [reference compound]", "values": [{"measurement": "LS1090-induced cell death on co-incubation with Z-VAD-fmk", "setting": "[1]; MM1.S cells, p< 0.0001", "value": "inhibited this event"}]}, {"compound": "CC(C)C[C@H](NC(=O)[C@H](Cc1ccccc1)NC(=O)c1cnccn1)B(O)O", "note": "[BTZ, Bortezomib, reference compound]", "values": [{"measurement": "sensitivity of U266 cells to BTZ relative to MM.1S cells (less sensitive)", "setting": "[2]; U266 versus MM.1S", "value": 10, "unit": "fold"}, {"measurement": "course of disease, BTZ", "setting": "[3]; 0.5 mg/kg or 1.0 mg/kg IP, same regimen", "value": "experienced early remission and relapsed after 6-week post-inoculation"}, {"measurement": "toxicity of BTZ dose over 1 mg/Kg", "setting": "[3]; BTZ over 1 mg/Kg IP", "value": "lethal effect on mice after the second dose"}, {"measurement": "EC50", "setting": "[1]; Homo sapiens, MM.1S cells, read-out: EC50 of BTZ alone", "value": 0.002, "unit": "µM"}, {"measurement": "EC50 of BTZ with increasing concentration ratio of LS1090 to BTZ", "setting": "[1]; MM.1S cells, in combination with LS1090", "value": 0.0014, "unit": "µM"}, {"measurement": "chymotrypsin-like activity in MM.1S cells, BTZ", "setting": "[4]; 0.1 µM, 4 h", "value": "efficiently inhibits"}]}, {"compound": "COc1cccc(-c2cc(=O)c3ccccc3o2)c1N", "note": "[PD98059, reference compound]", "values": [{"measurement": "LS1090-triggered caspase 3/7 activity in the presence of PD98059", "setting": "[5]; MM.1S cells pretreated with 20 µmol/L PD98059, then 1 µM LS1090 4 h", "value": "inhibited"}]}, {"compound": "O=C(Nc1cccc(C(F)(F)F)c1)OCCSc1ccc([N+](=O)[O-])c2nonc12", "note": "[LS1090, 2-((7-nitrobenzo[c][1,2,5]oxadiazol-4-yl)thio)ethyl (3-(trifluoromethyl)phenyl)carbamate]", "values": [{"measurement": "time to increased Bax expression post-treatment", "setting": "[6]", "value": "≤ 1", "unit": "h"}, {"measurement": "IC50", "setting": "[7]", "value": 0.49, "unit": "µM"}, {"measurement": "EC50", "setting": "[7]; 24 h", "value": 0.49, "unit": "µM"}, {"measurement": "cytotoxicity at 1 µM", "setting": "[2]; Homo sapiens, U-266, 1 µM LS1090, read-out: decrease of viability of U266 cells", "value": 55, "unit": "%"}, {"measurement": "IC50", "setting": "[2]; U-266, human U266 cells", "value": 0.44, "unit": "µM"}, {"measurement": "EC50", "setting": "[2]; U-266, human U266 cells, 24 h", "value": 0.44, "unit": "µM"}, {"measurement": "apoptosis-necrosis time pattern", "setting": "[8]", "value": "same apoptosis-necrosis pattern"}, {"measurement": "time of apoptosis peak post-treatment", "setting": "[9]; MM cells treated with LS1090 (1 µM)", "value": "about 10 h"}, {"measurement": "apoptosis-necrosis time pattern", "setting": "[9]; MM.1S cells, monitored 24 h", "value": "necrosis lagged apoptosis"}, {"measurement": "Bcl-2 expression after treatment", "setting": "[10]", "value": "did not downregulate"}, {"measurement": "cells eradicated", "setting": "[1]; LS1090-treated MM1.S cells, absence of Z-VAD-fmk", "value": 60, "unit": "%"}, {"measurement": "EC50", "setting": "[1]; human MM.1S cells, 24 h, read-out: EC50, MM.1S", "value": 0.49, "unit": "µM"}, {"measurement": "cytotoxicity in the presence of recombinant IL-6 or IGF-1", "setting": "[1]; MM.1S cells, 24 h", "value": "neither recombinant IL-6 nor IGF-1 blocked"}, {"measurement": "IC50", "setting": "[1]; human MM1.S cells", "value": 0.49, "unit": "µM"}, {"measurement": "cytotoxicity on PBMCs", "setting": "[11]", "value": "significant toxic effect; also recorded: significant cytotoxicity"}, {"measurement": "increase in caspase 3/7 activity", "setting": "[5]; MM.1S cells, 1 µM LS1090, 4 h incubation, fold change from untreated cells", "value": "over seven-fold increase"}, {"measurement": "IC50", "setting": "[12]; 5TGM1, mouse MM cell line 5TGM", "value": 0.32, "unit": "µM"}, {"measurement": "EC50", "setting": "[12]; mouse MM cell line 5TGM1", "value": 0.32, "unit": "µM"}, {"measurement": "effect on viability of selected cancer cell lines", "setting": "[13]", "value": "had an effect on all tested cancer cell lines"}, {"measurement": "p53 expression after treatment", "setting": "[14]", "value": "lack of p53 enhancement"}, {"measurement": "chymotrypsin-like activity in MM.1S cells, LS1090", "setting": "[4]; 4 h incubation at ten-fold the concentration of BTZ", "value": "did not significantly perturb"}, {"measurement": "duration of activated ERK1/2 state", "setting": "[15]", "value": "sustained over 3 h"}, {"measurement": "time to ERK1/2 phosphorylation post-treatment", "setting": "[15]", "value": "less than 1 h"}]}]}
